Here are results for 22 compounds from PubChem BioAssay AID248 (DTP/NCI, 2004).

“And” between values parts separate entries of the source, which are not always exact repeats. Equal values may be shown once. Toxic doses and inconclusive results are not listed.

The assay has as its system L1210 leukemia ip in BDF1 mice, survival T/C. Description: NCI In Vivo Anticancer Drug Screen. Data for tumor model L1210 Leukemia (intraperitoneal) in B6D2F1 (BDF1) mice. To be noted: endpoint: mean survival time, higher = longer survival. The essentials: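 Value reflects the ratio of survival in compound-treated mice to survival in vehicle-treated controls, with both groups carrying the same transplanted tumor.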

The mark [1] stands for this setting: dose: 50.0 mg/kg/injection, schedule: Q01DX001 (ip), vehicle: saline.
Where [2] appears, read: dose: 100.0 mg/kg/injection, schedule: Q01DX001 (ip), vehicle: saline.
The mark [3] stands for this setting: dose: 200.0 mg/kg/injection, schedule: Q01DX001 (ip), vehicle: saline.
Setting [4] is: dose: 400.0 mg/kg/injection, schedule: Q01DX001 (ip), vehicle: saline.
Where [5] appears, read: dose: 100.0 mg/kg/injection, schedule: Q01DX009 (ip), vehicle: Klucel (hydroxypropylcellulose) (HPC).
[6] abbreviates: dose: 200.0 mg/kg/injection, schedule: Q01DX009 (ip), vehicle: Klucel (hydroxypropylcellulose) (HPC).
The mark [7] stands for this setting: dose: 400.0 mg/kg/injection, schedule: Q01DX009 (ip), vehicle: Klucel (hydroxypropylcellulose) (HPC).
Setting [8] is: dose: 100.0 mg/kg/injection, schedule: Q04DX002 (ip), vehicle: saline with Tween-80.
[9] abbreviates: dose: 200.0 mg/kg/injection, schedule: Q04DX002 (ip), vehicle: saline with Tween-80.
[10] abbreviates: dose: 400.0 mg/kg/injection, schedule: Q04DX002 (ip), vehicle: saline with Tween-80.
Where [11] appears, read: dose: 100.0 mg/kg/injection, schedule: Q04DX003 (ip), vehicle: saline with Tween-80.
Setting [12] is: dose: 200.0 mg/kg/injection, schedule: Q04DX003 (ip), vehicle: saline with Tween-80.
Where [13] appears, read: dose: 400.0 mg/kg/injection, schedule: Q04DX003 (ip), vehicle: saline with Tween-80.

Consider `Cc1ccc(S(=O)(=O)OCCN(CCOS(=O)(=O)c2ccc(C)cc2)c2ccc(F)cc2)cc1`, for which the T/C is, setting by setting: (dose: 1.9 mg/kg/injection, schedule: Q01DX009 (ip), vehicle: saline) 122 % of control; (dose: 4.4 mg/kg/injection, schedule: Q01DX009 (ip), vehicle: saline) 122 % of control; (dose: 6.5 mg/kg/injection, schedule: Q01DX009 (ip), vehicle: saline) 102 % of control; (dose: 9.6 mg/kg/injection, schedule: Q01DX009 (ip), vehicle: saline) 124 % of control; (dose: 10.0 mg/kg/injection, schedule: Q01DX009 (ip), vehicle: saline) 118 % of control; (dose: 16.0 mg/kg/injection, schedule: Q01DX009 (ip), vehicle: saline) 113 % of control. For the same compound, the T/C by setting is: (dose: 22.0 mg/kg/injection, schedule: Q01DX009 (ip), vehicle: saline) 166 % of control; (dose: 23.0 mg/kg/injection, schedule: Q01DX009 (ip), vehicle: saline) 113 % of control; (dose: 24.0 mg/kg/injection, schedule: Q01DX009 (ip), vehicle: saline) 152 % of control; (dose: 35.0 mg/kg/injection, schedule: Q01DX009 (ip), vehicle: saline) 121 % of control; under setting [1], 97 % of control; (dose: 50.0 mg/kg/injection, schedule: Q01DX009 (ip), vehicle: saline) 95 % of control. For the same compound, the T/C was 110 % of control (dose: 53.0 mg/kg/injection, schedule: Q01DX009 (ip), vehicle: other); 88 % of control (dose: 75.0 mg/kg/injection, schedule: Q01DX009 (ip), vehicle: saline); 98 % of control and 119 % of control (dose: 79.0 mg/kg/injection, schedule: Q01DX009 (ip), vehicle: other); 100 % of control under setting [2]; 104 % of control (dose: 118.0 mg/kg/injection, schedule: Q01DX009 (ip), vehicle: other); 123 % of control (dose: 150.0 mg/kg/injection, schedule: Q01DX009 (ip), vehicle: saline). Further, the T/C reads like this: under setting [3], 105 % of control; under setting [4], 115 % of control.
With `COC12OCC(O)C1OC(=O)C2O` (stereo unspecified), the T/C reads like this: (dose: 50.0 mg/kg/injection, schedule: Q04DX002 (ip), vehicle: saline) 91 % of control; (dose: 100.0 mg/kg/injection, schedule: Q04DX002 (ip), vehicle: saline) 91 % of control; (dose: 200.0 mg/kg/injection, schedule: Q04DX002 (ip), vehicle: saline) 95 % of control.
For `CCN(CC)Cc1cc(NC(C)=O)ccc1O`, the T/C (dose: 100.0 mg/kg/injection, schedule: Q04DX003 (ip), vehicle: saline) was 102 % of control; the T/C (dose: 200.0 mg/kg/injection, schedule: Q04DX003 (ip), vehicle: saline) is 97 % of control; the T/C (dose: 400.0 mg/kg/injection, schedule: Q04DX003 (ip), vehicle: saline) was 113 % of control.
Turning to `CCCCCCCCCCCCCCCC[As](=O)(O)CCCCCCCCCCCCCCCC`, the T/C under setting [1] is 97 % of control, the T/C under setting [2] was 97 % of control, the T/C under setting [3] was 89 % of control and the T/C under setting [4] is 101 % of control.
For the compound `O=C(Nc1cc(C(F)(F)F)ccc1Cl)Nc1ccc(Cl)cc1[N+](=O)[O-]`, the T/C by setting is: under setting [5], 93 % of control; under setting [6], 87 % of control; under setting [7], 100 % of control.
For `CC(=O)OCCC(CCCl)OC(C)=O` (stereo unspecified), the T/C under setting [8] was 111 % of control, the T/C under setting [9] is 104 % of control and the T/C under setting [10] is 93 % of control.
Turning to `Cc1ccc(Cl)cc1NC(=O)C(Br)C(Br)C(=O)O` (stereo unspecified), the T/C under setting [5] was 91 % of control and the T/C under setting [6] is 101 % of control.
As for `CN(CCO)c1c(Cl)c(=O)oc2ccc(Cl)cc12`, the T/C under setting [11] was 90 % of control, the T/C under setting [12] was 92 % of control and the T/C under setting [13] was 89 % of control.
In the case of `CCOC(=O)c1ccc(N(N=O)C(C)C)cc1`, the T/C under setting [8] was 101 % of control, the T/C under setting [9] was 86 % of control and the T/C under setting [10] is 97 % of control.
Turning to `COc1ccccc1OC(=O)Nc1ccc(S(=O)(=O)NC2CCCCC2)cc1`, the T/C reads like this: under setting [2], 100 % of control; under setting [3], 91 % of control; under setting [4], 94 % of control.
With `COc1cccc(/C=N\NC(=O)C(C)SC(C)C(=O)N/N=C/c2cccc(OC)c2)c1` (stereo unspecified), the T/C is 91 % of control (dose: 100.0 mg/kg/injection, schedule: Q01DX009 (ip), vehicle: other); 89 % of control (dose: 100.0 mg/kg/injection, schedule: Q04DX003 (ip), vehicle: other); 94 % of control (dose: 200.0 mg/kg/injection, schedule: Q01DX009 (ip), vehicle: other); 89 % of control (dose: 200.0 mg/kg/injection, schedule: Q04DX003 (ip), vehicle: other); 94 % of control (dose: 400.0 mg/kg/injection, schedule: Q01DX009 (ip), vehicle: other); 96 % of control (dose: 400.0 mg/kg/injection, schedule: Q04DX003 (ip), vehicle: other).
On to `O=c1[nH]c(=S)[nH]c(Cc2ccccc2)c1CCO`, for which the T/C runs as follows: (dose: 100.0 mg/kg/injection, schedule: Q01DX009 (ip), vehicle: saline with Tween-80) 96 % of control; (dose: 200.0 mg/kg/injection, schedule: Q01DX009 (ip), vehicle: saline with Tween-80) 108 % of control; (dose: 400.0 mg/kg/injection, schedule: Q01DX009 (ip), vehicle: saline with Tween-80) 96 % of control.
On to `O=C(Nc1ccc(Cl)cc1)Oc1ccc(Cl)cc1Cl`, for which the T/C reads like this: (dose: 25.0 mg/kg/injection, schedule: Q01DX009 (ip), vehicle: DMSO) 92 % of control; (dose: 25.0 mg/kg/injection, schedule: Q04DX002 (ip), vehicle: DMSO) 94 % of control; (dose: 50.0 mg/kg/injection, schedule: Q01DX009 (ip), vehicle: DMSO) 86 % of control; (dose: 50.0 mg/kg/injection, schedule: Q04DX002 (ip), vehicle: DMSO) 87 % of control; (dose: 200.0 mg/kg/injection, schedule: Q04DX002 (ip), vehicle: DMSO) 96 % of control.
For `O=C(O)c1cccc(C(=O)O)[n+]1[O-]`, the T/C was 101 % of control (dose: 50.0 mg/kg/injection, schedule: Q04DX002 (ip), vehicle: Klucel (hydroxypropylcellulose) (HPC)) and 95 % of control (dose: 100.0 mg/kg/injection, schedule: Q04DX002 (ip), vehicle: Klucel (hydroxypropylcellulose) (HPC)).
Take `CSc1nc(N)nc(N)n1`: the T/C is 97 % of control (dose: 25.0 mg/kg/injection, schedule: Q01DX009 (ip), vehicle: Klucel (hydroxypropylcellulose) (HPC)); 100 % of control (dose: 50.0 mg/kg/injection, schedule: Q01DX009 (ip), vehicle: Klucel (hydroxypropylcellulose) (HPC)); 93 % of control and 90 % of control under setting [5]; 98 % of control under setting [6].
As to `O=C1c2cccc3cccc(c23)C(=O)N1Cc1ccccc1`, the T/C by setting is: under setting [2], 95 % of control; under setting [3], 103 % of control; under setting [4], 91 % of control.
Take `Clc1ccc(SSc2ccc(Cl)cc2)cc1`: the T/C is 102 % of control under setting [11], 94 % of control under setting [12] and 98 % of control under setting [13].
With `CN(C)C(=O)Nc1cccc2nsnc12`, the T/C is 106 % of control under setting [5], 104 % of control under setting [6] and 102 % of control under setting [7].
With `O=C1CCCC(=O)N1.[Tl]`, the T/C reads like this: (dose: 3.12 mg/kg/injection, schedule: Q04DX003 (ip), vehicle: water) 108 % of control; (dose: 6.25 mg/kg/injection, schedule: Q04DX003 (ip), vehicle: water) 102 % of control; (dose: 12.5 mg/kg/injection, schedule: Q04DX003 (ip), vehicle: water) 96 % of control.
`CC(=O)N/N=C/c1ccc([N+](=O)[O-])s1`: the T/C under setting [11] was 94 % of control.
On to `O=S1(=O)CCC(NCCSS(=O)(=O)O)CC1`, for which the T/C under setting [11] was 96 % of control, the T/C under setting [12] is 96 % of control and the T/C under setting [13] was 104 % of control.
For `N#Cc1ccncc1`, the T/C is, setting by setting: under setting [5], 91 % of control; under setting [6], 93 % of control; under setting [7], 96 % of control.
